Target: SARS-CoV-2 PLpro (Severe acute respiratory syndrome coronavirus 2 (2019-nCoV) (SARS-CoV-2), UniProt P0DTD1)
Assay: PLpro enzymatic inhibition assay (IC50 value determination)
Type: biochemical
Conditions: 60 min preincubation for covalent inhibitors, 10 min for non-covalent, read-out: Inhibition of SARS-CoV-2 PLpro IC50 range

SMILES | IC50 [µM]
C#CCNC(=O)CNC(=O)CNC1CCN([C@H](C)c2cccc3ccccc23)CC1 [Compound 12, (R)-2-((1-(1-(naphthalen-1-yl)ethyl)piperidin-4-yl)amino)-N-(2-oxo-2-(prop-2-yn-1-ylamino)ethyl)acetamide] | 0.1 to 1
C#CCNC(=O)CNC(=O)CN(C1CCN(c2nc3ccccc3s2)CC1)S(C)(=O)=O [Compound 119, 2-(N-(1-(benzo[d]thiazol-2-yl)piperidin-4-yl)methylsulfonamido)-N-(2-oxo-2-(prop-2-yn-1-ylamino)ethyl)acetamide] | 0.1 to 1
C#CCNC(=O)CNC(=O)CN(C1CCN(C(C)c2ccc(OC)c3ccccc23)CC1)S(C)(=O)=O (stereo not drawn) [Compound 96, 2-(N-(1-(1-(4-methoxynaphthalen-1-yl)ethyl)piperidin-4-yl)methylsulfonamido)-N-(2-oxo-2-(prop-2-yn-1-ylamino)ethyl)acetamide] | < 0.1
COC(=O)/C=C/CNC(=O)CNC(=O)[C@H](CN)NC1CCN([C@H](C)c2cccc3ccccc23)CC1 [Compound 26, methyl (E)-4-(2-((S)-3-amino-2-((1-((R)-1-(naphthalen-1-yl)ethyl)piperidin-4-yl)amino)propanamido)acetamido)but-2-enoate] | 0.1 to 1
COC(=O)/C=C/CNC(=O)CNC(=O)CN(C(=O)Cc1ccccc1)C1CCN(C(C)c2cccc3ccccc23)CC1 (stereo not drawn) [Compound 4, methyl (E)-4-(2-(2-(N-(1-(1-(naphthalen-1-yl)ethyl)piperidin-4-yl)-2-phenylacetamido)acetamido)acetamido)but-2-enoate] | 0.1 to 1
C#CCNC(=O)CNC(=O)CN(C1CCN([C@H](C)c2cccc3ccccc23)CC1)S(=O)(=O)N1CCC(C(=O)OC)C1 (stereo partly drawn) [Compound 134, methyl 1-(N-(1-((R)-1-(naphthalen-1-yl)ethyl)piperidin-4-yl)-N-(2-oxo-2-((2-oxo-2-(prop-2-yn-1-ylamino)ethyl)amino)ethyl)sulfamoyl)pyrrolidine-3-carboxylate] | < 0.1
C#CCNC(=O)CNC(=O)[C@@H](C)N(C1CCN([C@H](C)c2cccc3ccccc23)CC1)S(C)(=O)=O [Compound 152, (R)-2-(N-(1-((R)-1-(naphthalen-1-yl)ethyl)piperidin-4-yl)methylsulfonamido)-N-(2-oxo-2-(prop-2-yn-1-ylamino)ethyl)propanamide] | < 0.1
COC(=O)/C=C/CNC(=O)CNC(=O)CNC1CCN([C@H](C)c2cccc3ccccc23)CC1 [Compound 24, methyl (R,E)-4-(2-(2-((1-(1-(naphthalen-1-yl)ethyl)piperidin-4-yl)amino)acetamido)acetamido)but-2-enoate] | 0.1 to 1
C#CCNC(=O)CNC(=O)CN(C1CCN([C@@H](C)c2cccc3ccccc23)CC1)S(=O)(=O)C1CC1 [Compound 90, (S)-2-(N-(1-(1-(naphthalen-1-yl)ethyl)piperidin-4-yl)cyclopropanesulfonamido)-N-(2-oxo-2-(prop-2-yn-1-ylamino)ethyl)acetamide] | < 0.1
COC(=O)/C=C/CNC(=O)CNC(=O)CN(C(=O)C1CCCCC1)C1CCN([C@H](C)c2cccc3ccccc23)CC1 [Compound 11, methyl (R,E)-4-(2-(2-(N-(1-(1-(naphthalen-1-yl)ethyl)piperidin-4-yl)cyclohexanecarboxamido)acetamido)acetamido)but-2-enoate] | 0.1 to 1
COC(=O)/C=C/CNC(=O)CNC(=O)CN(C1CCN([C@H](C)c2cccc3ccccc23)CC1)S(=O)(=O)NC(=O)OC(C)(C)C [Compound 23, methyl (R,E)-4-(2-(2-((N-(tert-butoxycarbonyl)sulfamoyl)(1-(1-(naphthalen-1-yl)ethyl)piperidin-4-yl)amino)acetamido)acetamido)but-2-enoate] | 0.1 to 1
COC(=O)/C=C/CNC(=O)CNC(=O)CN(C(=O)C1CCCC1)C1CCN([C@H](C)c2cccc3ccccc23)CC1 [Compound 10, methyl (R,E)-4-(2-(2-(N-(1-(1-(naphthalen-1-yl)ethyl)piperidin-4-yl)cyclopentanecarboxamido)acetamido)acetamido)but-2-enoate] | 0.1 to 1
C#CCNC(=O)CNC(=O)CN(C1CCN([C@H](C)c2cccc3ccccc23)CC1)S(=O)(=O)CCC(N)=O [Compound 133, (R)-3-(N-(1-(1-(naphthalen-1-yl)ethyl)piperidin-4-yl)-N-(2-oxo-2-((2-oxo-2-(prop-2-yn-1-ylamino)ethyl)amino)ethyl)sulfamoyl)propanamide] | < 0.1
C#CCNC(=O)CNC(=O)CN(C1CCN(C(C)c2ccccc2-c2ccccc2)CC1)S(C)(=O)=O (stereo not drawn) [Compound 113, 2-(N-(1-(1-([1,1′-biphenyl]-2-yl)ethyl)piperidin-4-yl)methylsulfonamido)-N-(2-oxo-2-(prop-2-yn-1-ylamino)ethyl)acetamide] | 0.1 to 1
C#CCNC(=O)CNC(=O)CN(C1CCN(C(C)c2cccc3ccc(Cl)cc23)CC1)S(C)(=O)=O (stereo not drawn) [Compound 84, 2-(N-(1-(1-(7-chloronaphthalen-1-yl)ethyl)piperidin-4-yl)methylsulfonamido)-N-(2-oxo-2-(prop-2-yn-1-ylamino)ethyl)acetamide] | < 0.1
C#CCNC(=O)CNC(=O)CN(C1CCN(C(C)c2cccc3ccccc23)CC1)S(=O)(=O)N1CCN(CC(=O)O)CC1 (stereo not drawn) [Compound 117] | 1 to 10
C#CCNC(=O)CNC(=O)CN(C1CCN(C(C)c2cccc(-c3ccccc3)c2)CC1)S(C)(=O)=O (stereo not drawn) [Compound 112, 2-(N-(1-(1-([1,1′-biphenyl]-3-yl)ethyl)piperidin-4-yl)methylsulfonamido)-N-(2-oxo-2-(prop-2-yn-1-ylamino)ethyl)acetamide] | 0.1 to 1
COC(=O)/C=C/CNC(=O)CNC(=O)CN(C(=O)Cc1ccc2c(c1)OCO2)C1CCN([C@H](C)c2cccc3ccccc23)CC1 [Compound 2, methyl (R,E)-4-(2-(2-(2-(benzo[d][1,3]dioxol-5-yl)-N-(1-(1-(naphthalen-1-yl)ethyl)piperidin-4-yl)acetamido)acetamido)acetamido)but-2-enoate] | 0.1 to 1
C#CCNC(=O)CNC(=O)CN(C1CCN([C@H](C)c2cccc3ccccc23)CC1F)S(C)(=O)=O (stereo partly drawn) [Compound 93, 2-(N-(3-fluoro-1-((R)-1-(naphthalen-1-yl)ethyl)piperidin-4-yl)methylsulfonamido)-N-(2-oxo-2-(prop-2-yn-1-ylamino)ethyl)acetamide] | 0.1 to 1
C#CCNC(=O)CNC(=O)CN(C1CCN(C(C)c2cccc3ccccc23)CC1)S(=O)(=O)N1CCN(CC(=O)OCC)CC1 (stereo not drawn) [Compound 115, ethyl 2-(4-(N-(1-(1-(naphthalen-1-yl)ethyl)piperidin-4-yl)-N-(2-oxo-2-((2-oxo-2-(prop-2-yn-1-ylamino)ethyl)amino)ethyl)sulfamoyl)piperazin-1-yl)acetate] | < 0.1
C#CCNC(=O)CNC(=O)CN(C1CCN(C(CC)c2cccc3ccccc23)CC1)S(C)(=O)=O (stereo not drawn) [Compound 103, 2-(N-(1-(1-(naphthalen-1-yl)propyl)piperidin-4-yl)methylsulfonamido)-N-(2-oxo-2-(prop-2-yn-1-ylamino)ethyl)acetamide] | 0.1 to 1
C#CCNC(=O)CNC(=O)CN(C1CCN(C(c2cccc3ccccc23)C(F)F)CC1)S(C)(=O)=O (stereo not drawn) [Compound 148, 2-(N-(1-(2,2-difluoro-1-(naphthalen-1-yl)ethyl)piperidin-4-yl)methylsulfonamido)-N-(2-oxo-2-(prop-2-yn-1-ylamino)ethyl)acetamide] | 1 to 10
C#CCNC(=O)CNC(=O)CN(C1CCN(C(C)c2ccnc3ccccc23)CC1)S(C)(=O)=O (stereo not drawn) [Compound 85, N-(2-oxo-2-(prop-2-yn-1-ylamino)ethyl)-2-(N-(1-(1-(quinolin-4-yl)ethyl)piperidin-4-yl)methylsulfonamido)acetamide] | 0.1 to 1
C#CCNC(=O)CNC(=O)CN(C1CCN(C2(c3cccc4ccccc34)CC2)CC1)S(C)(=O)=O [Compound 105, 2-(N-(1-(1-(naphthalen-1-yl)cyclopropyl)piperidin-4-yl)methylsulfonamido)-N-(2-oxo-2-(prop-2-yn-1-ylamino)ethyl)acetamide] | 1 to 10
C#CCNC(=O)CNC(=O)CN(C1CCN(C(C)c2cccc(Cl)c2Cl)CC1)S(C)(=O)=O (stereo not drawn) [Compound 94, 2-(N-(1-(1-(2,3-dichlorophenyl)ethyl)piperidin-4-yl)methylsulfonamido)-N-(2-oxo-2-(prop-2-yn-1-ylamino)ethyl)acetamide] | 0.1 to 1
C#CCNC(=O)CNC(=O)[C@@H]1CNS(=O)(=O)N1C1CCN([C@H](C)c2cccc3ccccc23)CC1 [Compound 92, (S)-2-(1-((R)-1-(naphthalen-1-yl)ethyl)piperidin-4-yl)-N-(2-oxo-2-(prop-2-yn-1-ylamino)ethyl)-1,2,5-thiadiazolidine-3-carboxamide 1,1-dioxide 2,2,2-trifluoroacetate] | 1 to 10
COC(=O)/C=C/CNC(=O)CNC(=O)[C@@H](C)NC1CCN([C@H](C)c2cccc3ccccc23)CC1 [Compound 28, methyl (E)-4-(2-((R)-2-((1-((R)-1-(naphthalen-1-yl)ethyl)piperidin-4-yl)amino)propanamido)acetamido)but-2-enoate] | 1 to 10
C#CCNC(=O)CNC(=O)CN(C1CCN(C(C)c2c(Cl)cccc2Cl)CC1)S(C)(=O)=O (stereo not drawn) [Compound 125, 2-(N-(1-(1-(2,6-dichlorophenyl)ethyl)piperidin-4-yl)methylsulfonamido)-N-(2-oxo-2-(prop-2-yn-1-ylamino)ethyl)acetamide] | 0.1 to 1
COC(=O)/C=C/CNC(=O)CNC(=O)CN(/C=C/C(=O)C(F)(F)F)C1CCN([C@H](C)c2cccc3ccccc23)CC1 [Compound 67, methyl (E)-4-(2-(2-((1-((R)-1-(naphthalen-1-yl)ethyl)piperidin-4-yl)((E)-4,4,4-trifluoro-3-oxobut-1-en-1-yl)amino)acetamido)acetamido)but-2-enoate] | < 0.1
C#CCNC(=O)CNC(=O)CN(C1CCN(C(C)c2cccc(OC)c2Cl)CC1)S(C)(=O)=O (stereo not drawn) [Compound 123, 2-(N-(1-(1-(2-chloro-3-methoxyphenyl)ethyl)piperidin-4-yl)methylsulfonamido)-N-(2-oxo-2-(prop-2-yn-1-ylamino)ethyl)acetamide] | 0.1 to 1

Reference: patent US20250059159A1, “PLPRO INHIBITORS” (SHANGHAI SYNERGY PHARMACEUTICAL SCIENCES CO., LTD., priority 2021, published 2025)
